Where no end group is shown, it is not given here.
Key:
[1] = tested on: L929 mouse fibroblast cells; assay: Cytotoxicity, MTT assay; type: cell-based; conditions: 800 µM, 24 h; for effect on viability of L929 cells: compared with untreated control, result in words; for Cell viability (%): L929 cells
Description: The toxicity of the test peptides against L929 mouse fibroblast cells was assessed by 3-(4,5-dimethylthiazol-2-yl)-2,5-diphenyltetrazolium bromide (MTT) assay. L929 mouse fibroblast cells from American Type Culture Collection (ATCC, Manassas, VA, USA) were cultured in Dulbecco's Modified Eagle Medium (DMEM; HyClone, Utah, USA) supplemented with 10% fetal bovine serum (Gibco, South America), 10 mM 4-(2-hydroxyethyl)-1 piperazineethanesulfonic acid (HEPES; HyClone, Utah, USA), 2 mM L-glutamine (Gibco, Brazil) and 100 U/mL penicillin and 100 μg/ml streptomycin (Gibco, USA) in a 5% CO2 atmosphere at 37°C. L929 cells (2×10^4 cells/well) were seeded in 96-well plates (Nunc) and incubated overnight. The culture medium was discarded and replaced by 100 μL of fresh DMEM containing the test compounds (final concentration 800 μM). Cells without the test compounds served as untreated control. After 24 h incubation, 20 μL of MTT solution (5 mg/mL; Sigma, St. Louis, MO, USA) was added and incubated for 3 h. The culture supernatant was removed and 100 μL dimethyl sulfoxide was added to each well to dissolve the formazan crystals. The absorbance was measured at 540 nm on a microplate reader (BioTek Synergy HT). Percentage of cell viability was calculated according to the equation: (OD of treated cells/ OD of untreated cells) × 100.

[2] = tested on: P. aeruginosa PAO1 biofilm formation; assay: Biofilm formation assay, crystal violet staining; type: cell-based, Pseudomonas aeruginosa; conditions: for reduction of P. aeruginosa biofilms: 24 h, compared with untreated control, result in words
Description: (§1) The effect of BmKn‒2 peptide and derivatives on biofilm formation of P. aeruginosa PAO1 was determined according to the method published previously with some modifications. Briefly, 100 μL of the test peptides was plated into the wells of flat-bottomed 96-well microtiter plates (Nunc™, Roskilde, Denmark) at the final concentrations of 200 ‒ 800 μM. Aliquots of the P. aeruginosa PAO1 suspension were then inoculated to the wells of 96-well microtiter plates to obtain a final concentration of 10^6 CFU/mL. Culture without the test peptides was used as the untreated control. After incubation at 37 ^OC for 24 h without agitation, planktonic cells were removed and the plates were gently rinsed twice with phosphate buffered saline (PBS) pH 7.4. Biofilms were then stained with 0.1% crystal violet solution (Merck, Darmstadt, Germany) for 10 minutes at room temperature. Excess stains were rinsed off with PBS pH 7.4 and the plates were left dry at 37 ^OC for 2 h. Subsequently, biofilm biomass was solubilized with 30% acetic acid and the optical density (OD) measured at 550 nm using a microplate reader (BioTek Synergy HT).

P. aeruginosa PAO1 [3] = assay: Growth assay, standard plate counts; type: cell-based, Pseudomonas aeruginosa; conditions: 800 µM, 24 h; for effect on bacterial counts (growth): compared with untreated control, result in words
Description: The effects of BmKn‒2 peptide and its derivatives on growth of P. aeruginosa PAO1 were carried out as described previously with some modifications. Bacterial suspension (10^6 CFU/mL) and the test peptides (800 μM, final concentration) were incubated at 37 ^OC at 150 rpm. Bacterial culture without the test peptides was used as the untreated control. After 24 h, bacterial concentration was evaluated. Cultures from each treatment were taken and 10-fold serial dilution was performed; 100 μL of each dilution was then spread on LB agar plates. Following incubation at 37°C for 24 h, the colonies were counted and expressed as log10 CFU/mL.

sheep red blood cells = assay: Hemolytic assay; type: cell-based; conditions: 800 µM, 37 °C, 1 h
Description: Hemolytic activity of the test peptides was assayed according to a protocol described previously. Suspension of 2% sheep red blood cells (100 μL) prepared in PBS pH 7.4 was incubated with 100 μL of the test peptides (800 μM, final concentration). After incubation at 37 ^OC for 1 h, the suspension was centrifuged at 1,000 g for 5 min followed by transferring 100 μL of the supernatant to 96 well-microtiter plate (Nunc). Released hemoglobin was then determined by measuring an absorbance at 405 nm using a microplate reader (BioTek Synergy HT). Positive and negative controls in this assay were 1% Triton X-100 and PBS pH 7.4, respectively. Hemolysis (%) was calculated using an equation: (OD405 nm peptide ‒ OD405 nm PBS pH 7.4)/(OD405 nm 1% Triton X-100 ‒ OD405 nm PBS pH 7.4) × 100.

[4] = tested on: P. aeruginosa PAO1 established biofilms; assay: Established (24 h-preformed) biofilm assay, crystal violet staining; type: cell-based, Pseudomonas aeruginosa
Description: Antibiofilm activity of the test peptides was also examined against established biofilms as follows. Aliquots of the P. aeruginosa PAO1 suspension adjusted to a final concentration of 10^6 CFU/mL were seeded into the wells of flat-bottomed 96-well microtiter plates (Nunc). Biofilms were established at 37°C for 24 h. After incubation, nonadherent planktonic cells were removed by gently washing the wells with sterile PBS pH 7.4. Preformed biofilms were then treated with the test peptides at concentrations of 200 ‒ 800 μM and incubated at 37°C for 24 h. Culture without the test peptides served as the untreated control. After the incubation, the test peptides were aspirated gently and the plates were rinsed twice with PBS pH 7.4. Biofilm biomass was subsequently quantified by 0.1% crystal violet staining as previously described.

P. aeruginosa PAO1 [5] = assay: MIC, broth microdilution; type: cell-based, Pseudomonas aeruginosa; conditions: broth microdilution in LB broth, 10^6 CFU/mL, 37 °C, 24 h; printed only as half of the MIC
Description: MIC of azithromycin against P. aeruginosa was determined by using broth microdilution assay according to the protocol previously described with some modifications. Twofold serial dilutions of azithromycin (AZM; Sigma, St. Louis, USA) were prepared in LB broth in the wells of flat-bottomed 96-well microtiter plates (Nunc). Aliquots of P. aeruginosa PAO1 suspension at a final concentration of 10^6 CFU/mL was added to the wells of flat-bottomed 96-well microtiter plates (Nunc).

[6] = tested on: P. aeruginosa PAO1 biofilms; assay: Antibiofilm activity of BmKn-22 and azithromycin alone or in combination, crystal violet; type: cell-based, Pseudomonas aeruginosa
Description: as §1
Briefly, P. aeruginosa PAO1 suspension (10^6 CFU/mL, final concentration) was added to the wells of flat-bottomed 96-well microtiter plates (Nunc) containing the test peptide, azithromycin (AZM; Sigma) alone or in combinations. […] Biofilm formation was employed by measuring biofilm biomass stained with crystal violet as a protocol described in previous section.

[7] = 37 °C, 150 rpm, plate counts, untreated control 9.183, mean of 3 independent experiments
[8] = Exp. 1 (untreated control 9.082)
[9] = Exp. 2 (untreated control 9.198)
[10] = Exp. 3 (untreated control 9.268)

Row | Compound | effect on viability of L929 cells [1] | Cell viability (%) ([1]; Exp. 1) | Cell viability (%) ([1]; Exp. 2) | Cell viability (%) ([1]; Exp. 3) | reduction of P. aeruginosa biofilms ([2]; 800 µM) | Bacterial growth, Log10 CFU/mL (P. aeruginosa PAO1 [3]; [7]) [Log10 CFU/mL] | effect on bacterial counts (growth) (P. aeruginosa PAO1 [3]) | Bacterial growth, Log10 CFU/mL (P. aeruginosa PAO1 [3]; [8]) [Log10 CFU/mL] | Bacterial growth, Log10 CFU/mL (P. aeruginosa PAO1 [3]; [9]) [Log10 CFU/mL] | Bacterial growth, Log10 CFU/mL (P. aeruginosa PAO1 [3]; [10]) [Log10 CFU/mL] | lysis of red blood cells (sheep red blood cells) | further results
1 | FIGAIAR [BmKn-26] | low effects on cell viability | 85.233 | 87.113 | 79.724 | less biofilm reduction activities | 9.247 | no significant (P > 0.05) differences in bacterial counts | 9.213 | 9.213 | 9.314 | less or no hemolysis | –
2 | FIGAIARLLS [BmKn-23] | low effects on cell viability | 80.383 | 84.400 | 88.135 | marked reduction | 9.429 | no significant (P > 0.05) differences in bacterial counts | 9.488 | 9.359 | 9.440 | less or no hemolysis | Biofilm inhibition (%), preformed biofilm ([4]; 200 µM, Exp. 1): 0.000%; Biofilm inhibition (%), preformed biofilm ([4]; 200 µM, Exp. 2): 3.802%; Biofilm inhibition (%), preformed biofilm ([4]; 200 µM, Exp. 3): 6.512%; Biofilm inhibition (%), preformed biofilm ([4]; 400 µM, Exp. 1): 12.191%; Biofilm inhibition (%), preformed biofilm ([4]; 400 µM, Exp. 2): 4.570%; Biofilm inhibition (%), preformed biofilm ([4]; 400 µM, Exp. 3): 0.000%; Biofilm inhibition (%), preformed biofilm ([4]; 800 µM, Exp. 1): 3.155%; Biofilm inhibition (%), preformed biofilm ([4]; 800 µM, Exp. 2): 0.000%; Biofilm inhibition (%), preformed biofilm ([4]; 800 µM, Exp. 3): 8.639%; % inhibition of 24 h-preformed P. aeruginosa biofilms ([4]; range over 200 - 800 µM, 24 h treatment): No eradication activity; Biofilm inhibition (%), biofilm formation ([2]; 200 µM, Exp. 1): 28.654%; Biofilm inhibition (%), biofilm formation ([2]; 200 µM, Exp. 2): 28.944%; Biofilm inhibition (%), biofilm formation ([2]; 200 µM, Exp. 3): 40.209%; Biofilm inhibition (%), biofilm formation ([2]; 400 µM, Exp. 1): 34.053%; Biofilm inhibition (%), biofilm formation ([2]; 400 µM, Exp. 2): 36.612%; Biofilm inhibition (%), biofilm formation ([2]; 400 µM, Exp. 3): 46.402%; Biofilm inhibition (%), biofilm formation ([2]; 800 µM, Exp. 1): 44.669%; Biofilm inhibition (%), biofilm formation ([2]; 800 µM, Exp. 2): 49.083%; Biofilm inhibition (%), biofilm formation ([2]; 800 µM, Exp. 3): 70.992%
3 | CC[C@H]1OC(=O)[C@H](C)[C@@H](O[C@H]2C[C@@](C)(OC)[C@@H](O)[C@H](C)O2)[C@H](C)[C@@H](O[C@@H]2O[C@H](C)C[C@H](N(C)C)[C@H]2O)[C@](C)(O)C[C@@H](C)CN(C)[C@H](C)[C@@H](O)[C@]1(C)O [AZM, azithromycin, reference compound] | – | – | – | – | – | – | – | – | – | – | – | sub-MIC (1/2 of MIC) dose (P. aeruginosa PAO1 [5]): 64 mg/L; Biofilm biomass (% control) ([6]; azithromycin alone 64 µg/ml (1/2 MIC), 24 h, 37 °C, crystal violet, mean of 3 independent experiments): 100.000 % control; Biofilm biomass (% control) ([6]; azithromycin alone 64 µg/ml, Exp. 1): 100.000 % control; Biofilm biomass (% control) ([6]; azithromycin alone 64 µg/ml, Exp. 2): 100.000 % control; Biofilm biomass (% control) ([6]; azithromycin alone 64 µg/ml, Exp. 3): 100.000 % control; biofilm inhibition by azithromycin alone ([6]; sub-MIC dose (1/2 MIC, 64 µg/mL), result in words): significant biofilm inhibition was not evident
4 | FIGAIARL [BmKn-25] | low effects on cell viability | 82.909 | 93.165 | 83.012 | less biofilm reduction activities | 9.293 | no significant (P > 0.05) differences in bacterial counts | 9.255 | 9.288 | 9.335 | less or no hemolysis | –
5 | FIGAIARLLSKI [BmKn-21] | significant decrease (P < 0.001) in viability | 1.974 | 1.699 | 1.835 | marked reduction | 6.183 | reduction in bacterial counts | 6.000 | 6.314 | 6.236 | – | –
6 | FIGAIARLL [BmKn-24] | low effects on cell viability | 84.274 | 81.538 | 83.751 | less biofilm reduction activities | 9.313 | no significant (P > 0.05) differences in bacterial counts | 9.304 | 9.273 | 9.364 | less or no hemolysis | –
7 | FIGAIARLLSKIF [BmKn-2, reference compound] | significant decrease (P < 0.001) in viability | 2.236 | 2.027 | 1.988 | marked reduction | 6.872 | reduction in bacterial counts | 6.755 | 6.448 | 7.411 | – | –

— PMC6568410, “A scorpion venom peptide derivative BmKn‒22 with potent antibiofilm activity against Pseudomonas aeruginosa” (PLoS ONE, 2019)
